Source: PubChem BioAssay (NCI)
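The compound was tested at five concentrations on cells cultured in 96-well plates, with a 48-hour exposure period. TGI: concentration producing complete growth inhibition.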

Tests used:
Assay in all cases: NCI anticancer screen, dose series, 48 h
HL-60(TB) leukemia = system: HL-60(TB) leukemia
UO-31 renal = system: UO-31 renal
UACC-257 melanoma = system: UACC-257 melanoma
SF-268 CNS = system: SF-268 CNS
MDA-MB-435 = system: MDA-MB-435
CCRF-CEM leukemia = system: CCRF-CEM leukemia
CAKI-1 renal = system: CAKI-1 renal
HCT-116 colon = system: HCT-116 colon
MDA-N = system: MDA-N
OVCAR-5 ovarian = system: OVCAR-5 ovarian
NCI-H460 lung = system: NCI-H460 lung
MOLT-4 leukemia = system: MOLT-4 leukemia
COLO 205 colon = system: COLO 205 colon
HOP-62 NSCLC = system: HOP-62 NSCLC
SK-MEL-5 melanoma = system: SK-MEL-5 melanoma
U251 CNS = system: U251 CNS
LOX IMVI melanoma = system: LOX IMVI melanoma
SNB-75 CNS = system: SNB-75 CNS
SR leukemia = system: SR leukemia
HS 578T breast = system: HS 578T breast
A549 NSCLC = system: A549 NSCLC
M14 melanoma = system: M14 melanoma
MALME-3M melanoma = system: MALME-3M melanoma
786-0 renal = system: 786-0 renal
MDA-MB-231 breast = system: MDA-MB-231 breast
SN12C renal = system: SN12C renal
SK-MEL-2 melanoma = system: SK-MEL-2 melanoma
OVCAR-8 ovarian = system: OVCAR-8 ovarian
OVCAR-4 ovarian = system: OVCAR-4 ovarian
RXF 393 renal = system: RXF 393 renal
SNB-19 CNS = system: SNB-19 CNS
SK-MEL-28 melanoma = system: SK-MEL-28 melanoma
ACHN renal = system: ACHN renal
NCI-H226 lung = system: NCI-H226 lung
K-562 leukemia = system: K-562 leukemia
SF-295 CNS = system: SF-295 CNS
SF-539 CNS = system: SF-539 CNS
UACC-62 melanoma = system: UACC-62 melanoma
A498 renal = system: A498 renal
HT29 colon = system: HT29 colon
NCI-H522 lung = system: NCI-H522 lung
NCI/ADR-RES ovarian = system: NCI/ADR-RES ovarian
HCT-15 colon = system: HCT-15 colon
HOP-92 NSCLC = system: HOP-92 NSCLC
RPMI-8226 leukemia = system: RPMI-8226 leukemia
HCC-2998 colon = system: HCC-2998 colon
SW-620 colon = system: SW-620 colon
KM12 colon = system: KM12 colon
SK-OV-3 ovarian = system: SK-OV-3 ovarian
EKVX NSCLC = system: EKVX NSCLC
NCI-H23 lung = system: NCI-H23 lung
OVCAR-3 ovarian = system: OVCAR-3 ovarian
T-47D breast = system: T-47D breast
MCF7 breast = system: MCF7 breast
PC-3 prostate = system: PC-3 prostate
IGROV1 ovarian = system: IGROV1 ovarian
DU-145 prostate = system: DU-145 prostate

Measured: TGI

N#C/C(=C/n1c(=S)[nH]c2ccccc21)C(N)=O
30.4 µM: HL-60(TB) leukemia
> 100 µM: all other assays above

O=c1c(Nc2ccccc2)cn(CCOc2ccc(Cl)cc2)c(=O)n1CCOc1ccc(Cl)cc1
not listed: HL-60(TB) leukemia | OVCAR-5 ovarian | HOP-62 NSCLC | SNB-75 CNS | MALME-3M melanoma | MDA-MB-231 breast | SK-MEL-2 melanoma | OVCAR-8 ovarian | NCI-H226 lung | SF-539 CNS | HT29 colon | NCI-H522 lung | NCI/ADR-RES ovarian | HOP-92 NSCLC | SK-OV-3 ovarian | OVCAR-3 ovarian | T-47D breast | MCF7 breast
> 100 µM: all other assays above
